Results taken from the supplement of paper PMC13380429.

Tests used:
Details in all cases: 72 h
[1] = system: Caco-2; assay: cell viability relative to DMSO; higher = less toxic
[2] = system: Calu-3; assay: as above
[3] = system: HepG2; assay: as above
[4] = system: U2OS; assay: as above
[5] = system: Vero E6; assay: as above
[6] = system: Caco-2; assay: relative viability EC50 (midpoint between 100% and the lowest measured viability); higher = less toxic
[7] = system: Calu-3; assay: as above
[8] = system: HepG2; assay: as above
[9] = system: U2OS; assay: as above
[10] = system: Vero E6; assay: as above
[11] = system: Caco-2; assay: drug sensitivity score (DSS) for viability; higher = more toxic; extreme values may be limits of the assay
[12] = system: Calu-3; assay: as above
[13] = system: HepG2; assay: as above
[14] = system: U2OS; assay: as above
[15] = system: Vero E6; assay: as above

Compound | cell viability ([1]; 1 nM) [%] | cell viability ([1]; 10 nM) [%] | cell viability ([1]; 100 nM) [%] | cell viability ([1]; 1000 nM) [%] | cell viability ([1]; 10000 nM) [%] | cell viability ([2]; 1 nM) [%] | cell viability ([2]; 10 nM) [%] | cell viability ([2]; 100 nM) [%] | cell viability ([2]; 1000 nM) [%] | cell viability ([2]; 10000 nM) [%] | cell viability ([3]; 1 nM) [%] | cell viability ([3]; 10 nM) [%] | cell viability ([3]; 100 nM) [%] | cell viability ([3]; 1000 nM) [%] | cell viability ([3]; 10000 nM) [%] | cell viability ([4]; 1 nM) [%] | cell viability ([4]; 10 nM) [%] | cell viability ([4]; 100 nM) [%] | cell viability ([4]; 1000 nM) [%] | cell viability ([4]; 10000 nM) [%] | cell viability ([5]; 1 nM) [%] | cell viability ([5]; 10 nM) [%] | cell viability ([5]; 100 nM) [%] | cell viability ([5]; 1000 nM) [%] | cell viability ([5]; 10000 nM) [%] | relative viability EC50 [6] [µM] | relative viability EC50 [7] [µM] | relative viability EC50 [8] [µM] | relative viability EC50 [9] [µM] | relative viability EC50 [10] [µM] | drug sensitivity score [11] | drug sensitivity score [12] | drug sensitivity score [13] | drug sensitivity score [14] | drug sensitivity score [15]
CO[C@H]1CC[C@H](N(c2cc(C3=CCCCC3)sc2C(=O)O)C(=O)[C@H]2CC[C@H](C)CC2)CC1 [VCH-916] | 92.2 | 93.4 | 105 | 95.5 | 105 | 90.8 | 110 | 107 | 97.5 | 104 | 103 | 92.8 | 110 | 110 | 114 | 96.2 | 98.7 | 98.6 | 98.6 | 101 | 96.9 | 95.7 | 98.8 | 103 | 110 | > 10 | > 10 | > 10 | > 10 | > 10 | 0 | 0 | 0 | 0 | 0
CN/C(=N\c1ccc(C2=NNC(=O)CC2C)cc1)NC#N (stereo not given) [siguazodan] | 105 | 97.2 | 97.2 | 96.6 | 90.6 | 102 | 100 | 98.9 | 102 | 98.6 | 114 | 91.1 | 104 | 107 | 105 | 103 | 103 | 97.6 | 105 | 99.7 | 103 | 104 | 104 | 98.9 | 105 | > 10 | > 10 | > 10 | > 10 | > 10 | 0 | 0 | 0 | 0 | 0
CC(C)Nc1cccnc1N1CCN(C(=O)c2cc3cc(NS(C)(=O)=O)ccc3[nH]2)CC1 [delavirdine] | 99.4 | 96.4 | 101 | 101 | 94.2 | 100 | 93 | 104 | 90.5 | 105 | 98.8 | 108 | 99.2 | 115 | 107 | 101 | 101 | 102 | 98.5 | 102 | 92.2 | 99 | 87.9 | 95.3 | 105 | > 10 | > 10 | > 10 | > 10 | > 10 | 0 | 0 | 0 | 0 | 0
COc1ccc(COc2cc3oc(=O)c4cc(C(C)O)ccc4c3cc2OC)cc1 (stereo not given) [palomid-529] | 107 | 94.1 | 96.4 | 85.6 | 93.7 | 111 | 98.9 | 84.8 | 101 | 96.2 | 97.3 | 100 | 101 | 99.6 | 102 | 96.3 | 105 | 94.4 | 94 | 99.8 | 101 | 100 | 99 | 100 | 99.7 | > 10 | > 10 | > 10 | > 10 | > 10 | 0.3 | 0 | 0 | 0 | 0
CCOC(=O)[C@@H](N)Cc1ccc(-c2cc(O[C@H](c3ccc(Cl)cc3-n3ccc(C)n3)C(F)(F)F)nc(N)n2)cc1 [telotristat-ethyl] | 97.3 | 89.6 | 104 | 99.4 | 88.6 | 96.6 | 99.7 | 106 | 91.1 | 95.4 | 97.7 | 106 | 94.5 | 102 | 113 | 96.6 | 93.5 | 93.6 | 100 | 96.4 | 96.6 | 91.8 | 95.2 | 95.5 | 107 | > 10 | > 10 | > 10 | > 10 | > 10 | 0 | 0 | 0 | 0 | 0
CCOc1cc(OCC)c(C(=O)CCC(=O)O)cc1OCC [trepibutone] | 98.6 | 98.4 | 102 | 101 | 96.7 | 108 | 105 | 107 | 102 | 99.8 | 100 | 96.9 | 104 | 98.1 | 99.9 | 101 | 94.3 | 94.5 | 100 | 96.6 | 94.5 | 105 | 99.8 | 97.3 | 92.7 | > 10 | > 10 | > 10 | > 10 | > 10 | 0 | 0 | 0 | 0 | 0
COc1cc2nc(N3CCN(C(=O)C4CCCO4)CC3)nc(N)c2cc1OC (stereo not given) [terazosin] | 104 | 95.3 | 95.4 | 92.5 | 95.3 | 96.1 | 106 | 105 | 99.9 | 96.3 | 107 | 96.7 | 101 | 103 | 112 | 97.8 | 102 | 96 | 101 | 103 | 96.4 | 95.4 | 97 | 92.9 | 104 | > 10 | > 10 | > 10 | > 10 | > 10 | 0 | 0 | 0 | 0 | 0
CCN(CC)CCOCCOC(=O)C1(c2ccccc2)CCCC1 [carbetapentane] | 97.9 | 94.3 | 94.3 | 105 | 91.1 | 90.6 | 93.8 | 104 | 97.6 | 100 | 104 | 103 | 97.2 | 97.5 | 94.4 | 99.4 | 102 | 99.5 | 101 | 95.5 | 103 | 93.9 | 108 | 104 | 97.6 | > 10 | > 10 | > 10 | > 10 | > 10 | 0 | 0 | 0 | 0 | 0
Cc1cc(C(C#N)c2ccc(Cl)cc2)c(Cl)cc1NC(=O)c1cc(I)cc(I)c1O (stereo not given) [closantel] | 97.4 | 99.6 | 99.8 | 97.5 | 100 | 90.9 | 95.5 | 92.3 | 92.4 | 95.3 | 95 | 95.5 | 102 | 86.4 | 107 | 93.3 | 96.7 | 97.4 | 98.8 | 104 | 101 | 98.2 | 96.2 | 93.7 | 101 | > 10 | > 10 | > 10 | > 10 | > 10 | 0 | 0 | 0 | 0 | 0
CN1[C@@H]2CC[C@H]1C[C@@H](OC(=O)c1c[nH]c3ccccc13)C2 [tropisetron] | 102 | 108 | 101 | 103 | 97.5 | 100 | 93.8 | 99.9 | 88.6 | 97.6 | 100 | 101 | 93.1 | 96.7 | 101 | 104 | 103 | 96.8 | 100 | 98.3 | 98.2 | 97.3 | 98.2 | 99.9 | 96.2 | > 10 | > 10 | > 10 | > 10 | > 10 | 0 | 0 | 0 | 0 | 0
Nc1ccc(S(=O)(=O)c2ccc(N)cc2)cc1 [dapsone] | 106 | 95.6 | 104 | 100 | 91.7 | 104 | 98.6 | 90.4 | 106 | 101 | 112 | 107 | 93.2 | 106 | 96.6 | 99.3 | 97.1 | 95.8 | 96.2 | 100 | 98.5 | 106 | 105 | 106 | 100 | > 10 | > 10 | > 10 | > 10 | > 10 | 0 | 0 | 0 | 0 | 0
O=C(Nc1ccc(Cl)nc1)c1ccc(Cl)cc1 | 103 | 90.2 | 97.8 | 98.8 | 102 | 94.9 | 90.6 | 96.6 | 94.2 | 102 | 97.5 | 109 | 106 | 103 | 110 | 95.6 | 94.3 | 101 | 93.2 | 95.7 | 95.4 | 98.7 | 95.9 | 94.1 | 100 | > 10 | > 10 | > 10 | > 10 | > 10 | 0 | 0 | 0 | 0 | 0
CCCCCCCCCCCCCCCCOP(=O)([O-])OCC[N+](C)(C)C [miltefosine] | 113 | 104 | 106 | 114 | 99.8 | 98.3 | 91.5 | 90.3 | 108 | 86.5 | 107 | 98.5 | 112 | 96.4 | 109 | 96.8 | 103 | 97.2 | 99.9 | 95.5 | 96.1 | 101 | 110 | 105 | 77.3 | > 10 | > 10 | > 10 | > 10 | > 10 | 0 | 0 | 0 | 0 | 0.6
